Assay results from US8420100B2, “Tumor suppressor activating polypeptides and uses thereof” (Department of Biotechnology, priority 2006, dated 2013).
“Also recorded” adds a separate entry of the source.

Assays:
[1] = test system: tumor vasculature of B16F1-induced tumors; assay: Hematoxylin and eosin histopathology of B16F1-induced tumors; type: in vivo, mouse; details: tumors excised from treated mice
From the text: (§1) Histopathological changes in the subcutaneous tumors: To analyze the tumor vasculature of TAT PTD, SM treated and P44 treated mice, the tumor sections were stained with HE. […] In SM treated tumors, due to compressed vessels, the shape of RBCs were also distorted (FIG. 7A, lower right panel, arrow marked). […] The presence of hypoxic cells is a hallmark of cancer (Brown, J. M., and Wilson, W. R. (2004) Nat. Rev. Cancer 4, 437-447; Minchinton, A. I., and Tannock, I. F. (2006) Nat. Rev. Cancer 6, 583-592). Cellular responses to hypoxia are triggered by the hypoxia inducible factor-1 alpha (HIF-1α) that is known to restore tissue homeostasis in hypoxic conditions (Semenza, G. L. (2000) Genes Dev. 14, 1983-1991). To determine the status of HIF-1α expression, immunohistochemical analysis was performed on tumor sections obtained from SM and P44 treated mice by using antibody against HIF-1 α. […] All these observations implicate the significance of P44 peptide in restoring tissue architecture in tumor cells and thus potentiates its role as a tumor regressor.
(§2) FIG. 7. Histopathological changes in B16F1-induced tumors. A, Hematoxylin and eosin staining of tumor sections excised from mice treated with either P44 (upper panel) or SM (lower panel) peptide. […] The images have been recorded at 20× and 40×. B, Immunohistochemistry of paraffin embedded tumor sections from P44 treated as well as, SM treated mice. After antigen unmasking, sections were stained with HIF-1α antibody (middle panel) and detected using Cy-3 conjugated mouse immunoglobulin. Sections were counterstained with DAP1 for nuclear localization (left panel). Right panel corresponds to the merged image.

[2] = test system: B16F1 mouse melanoma cells; assay: B16F1 melanoma tumor regression in nude mice; type: in vivo; details: for anti-tumorigenic activity (tumor regression): xenograft tumor nude mice model
Method: P44 peptide: A potent tumor regressor: To test whether the differences in SMAR1 derived peptide-induced activation of p53 translated to differences in drug sensitivity in vivo, B16F1 mouse melanoma cells were subcutaneously grafted into athymic nude mice, and tumor growth together with therapeutic sensitivity was monitored. Once the tumor nodule was established into the mouse, P44 peptide was injected in the tumor localized areas at a physiological dose of 200 μg/mouse thrice a week. The treatment was continued for 4 weeks. In a parallel experiment, either TAT PTD or TAT-SMAR1 RS mutant peptide, SM (FIGS. 6A and B, respectively) was injected in tumor bearing mice to be used as control.
FIG. 6D-F corresponds to the magnified tumor images of FIG. 6A-C, respectively. […] Thus, P44 peptide mimics the function of full-length SMAR1 in drastically reducing the tumor growth.
FIG. 6. Tumor regression by TAT-SMAR1 WT peptide. A, Nude mice were allowed to develop tumors by subcutaneously injecting B 16F1 mouse melanoma cells. Mice with size-matched tumors were then randomized into three treatment groups (five animals per group); TAT PTD alone (panel A), TAT-SMART RS mutant (SM) (panel B) and TAT-SMAR1 WT (P44) (panel C). Panels D, E and F correspond to the magnified images of panels A, B and C, respectively. Mice were treated with either of the peptides at a dose of 200 μg/mice/thrice a week for consecutive 4 weeks. The tumors were then weighed and plotted for each mouse in all the treatment groups (panel G).
Animal model for tumorgenesis: B16F1 mouse melanoma cells in the exponential growth phase were trypsinized (Invitrogen) and washed twice with PBS. Cell number and viability was assessed and cell cultures with viability >90% were used. Tumors were then established in nude mice by subcutaneous injection of 2×10^6 B16F1 cells. Five mice were used in each set of experiments. The mice were maintained under pathogen-free conditions. When the subcutaneous tumor was clearly visible, the TAT-SMAR1 WT (P44) peptide treatment was started. The P44 peptide was subcutaneously injected proximal to the tumor sites at a dose of 200 μg/mouse thrice a week. The treatment was administered for 4 weeks. For control treatment, TAT PTD alone and TAT SMAR1 RS mutant peptide (SM) were injected in the same manner as the P44 peptide.

HIF-1α = assay: Immunohistochemical staining of tumor sections for HIF-1α; type: in vivo, mouse; details: tumors excised from treated mice
From the text: as §1, §2
Immunohistochemical staining of tumor sections: Tumor sections in paraffin-embedded blocks were transferred to poly-L-lysine coated glass slides and air-dried overnight at 37° C. They were dewaxed in xylene (three changes) and […] in graded series of decreasing ethanol concentrations. […] Thereafter, detected using cy-3 fluorescence labeled secondary antibody. […]

[3] = test system: cell cycle regulatory genes; assay: Microarray gene expression upon P44 treatment; type: cell-based

YGRKKRRQRRRTAWRRKQRGQSLAVKSFSRRTPAAAAYSASETM [SM, P44 mutant where serine residues from 347-350 were replaced by alanines]
tumor vascular architecture (HE staining) [1]: leaky vascular architecture; also recorded: poorly organized vascular architecture and compressed blood vessels | tumor weight after excision ([2]; nude mice, 200 μg/mouse thrice a week, 4 weeks): 1.2 to 2.5 g | anti-tumorigenic activity (tumor regression) [2]: significantly reduced | HIF-1α expression in tumor sections (HIF-1α): increased HIF-1 α expression

YGRKKRRQRRRTAWRRKQRGQSLAVKSFSRRTPSSSSYSASETM [P44, 33 mer SMAR1 peptide (residues 324-357) conjugated with 11-mer TAT-PTD]
inter-vessel distance compared to SM-treated tumors [1]: significantly less | tumor vascular architecture (HE staining) [1]: intact vasculature | expression of genes involved in regulating mitosis, MAPK signaling and cell cycle checkpoints [3]: significant decreased expression | expression of proteins involved in ubiquitin-proteasome signaling [3]: reduced expression | regression in tumor compared to TAT-injected or SM injected mice ([2]; nude mice, 200 μg/mouse thrice a week, 4 weeks, injected at tumor site): 5-7 fold | anti-tumorigenic activity (tumor regression) [2]: strongly regressed tumors | HIF-1α expression in tumor sections (HIF-1α): no detectable level of HIF-1α
